Consider one molecule from ChEMBL document CHEMBL1147235, “Isolation and structure determination of lyngbyastatin 3, a lyngbyastatin 1 homologue from the marine cyanobacterium Lyngbya majuscula. Determination of the configuration of the 4-amino-2,2-dimethyl-3-oxopentanoic acid unit in majusculamide C, dolastatin 12, lyngbyastatin 1, and lyngbyastatin 3 …” (J Nat Prod, 2003).

The test system of assay [1] is KB. Description: Cytotoxicity against human KB cells. The class given is functional, cell-based.
The test system of assay [2] is LoVo. Description: Cytotoxicity against human LoVo cells. The class given is functional, cell-based.
Assay [3] concerns Mus musculus. Description: Antitumor activity against mouse mammary adenocarcinoma 16/C cells implanted mouse. Format: functional.
Assay [4] relates to MC-38. Description: Antitumor activity against mouse colon 38 cells implanted mouse. Format: functional, cell-based.

Molecules are shown by their SMILES. pIC50: −log10 of the molar value. Active and inactive are the calls of the source. The rule behind the calls is not given here. *1 amine or outer side, *2 acyl side, *3 side chain or, on linkers, in order; H or OH if unused. Where a SMILES comes first, the peptide text is derived from it. [ ]: non-standard residue; d: D form. X2 = CCC[C@@H](N[*:1])[C@H](C)C(=O)O[C@H](C(=O)[*:2])[C@H](C)CC; X1 = C[C@H](N[*:1])C(=O)C(C)(C)C(=O)[*:2]; NMeY = CN[C@@H](Cc1ccc(O)cc1)C(=O)O; NMeL = CN[C@@H](CC(C)C)C(=O)O; NMeV = CN[C@H](C(=O)O)C(C)C; NMeA = CN[C@@H](C)C(=O)O

By pIC50 is commonly meant the IC50 on a negative log10 scale, so that one unit is a factor of ten. For the molecule `CCC[C@H]1NC(=O)[C@H](C)N(C)C(=O)C(C)(C)C(=O)[C@H](C)NC(=O)[C@H](Cc2ccc(OC)cc2)N(C)C(=O)[C@H](C(C)C)N(C)C(=O)CNC(=O)[C@H](CC(C)C)N(C)C(=O)CNC(=O)[C@H]([C@H](C)CC)OC(=O)[C@H]1C` [lyngbyastatin 3] (cyclo(G[NMeL]G[NMeV][NMeY](Me)[X1][NMeA][X2])), the pIC50 is 7.49 in assay [1] and 6.40 in assay [2]. In addition, the result in assay [3] and in assay [4] was inactive.
